Test results: patent US20250186600A1, “EXCIPIENT COMPOUNDS FOR PROTEIN FORMULATIONS” (Comera Life Sciences, Inc., priority 2020, published 2025)
Where a name gives a salt, the structure may show the parent alone.

Columns and labels:
[1] = system: proteins described in Table 50; assay: DLS diffusion interaction parameter kD (Example 49); format: physicochemical; conditions: mixed 1:1 with protein solution, 20 mM His HCl pH 6, 25° C.
Procedure: The resulting solution was titrated to pH 6 by dropwise addition of 1 M hydrochloric acid. After pH adjustment, the buffer was diluted to a final volume of 1 L in a volumetric flask with Type 1 ultrapure water. All excipients used in this Example, listed in Table 50 below, were of the highest purity, and were obtained from Sigma Aldrich (St. Louis, MO) or Cayman Chemical (Ann Arbor, MI).
A series of six test protein solutions were prepared using the proteins described in Table 50, ranging in protein concentration from about 4 mg/mL to about 20 mg/mL, all in 20 mM His HCl buffer at pH 6. […] A second centrifuge step was completed to remove air bubbles. The diffusion interaction parameter (kD) of these protein-excipient formulations was measured by dynamic light scattering (DLS) in dilute solution as a way of probing the impact of excipients on protein-protein interactions (PPI). […] A more negative kD indicated a stronger net attractive PPI and a more positive kD indicated a stronger net repulsive PPI.

[2] = Caffeine solubility with co-solutes during refrigerated storage (Example 61); format: physicochemical; set-up: key: (PPT)—precipitate observed; (—)—clear solution observed; conditions: 50 mM co-solute, 25 mM histidine pH 6, stored 2 to 5° C.
Procedure: The resulting microplates were then sealed with microplate tape and stored in a refrigerator with the temperature maintained in the range of 2 to 5° C. Over the course of storage, the microplates were visually observed for evidence of precipitate in the well.

[3] = excipient stock concentration 100 mM
[4] = excipient stock concentration 200 mM

In the case of `CCN(CC)CCCC(C)Nc1ccnc2cc(Cl)ccc12` (centres unmarked) [Chloroquine Phosphate], the “Omalizumab kD” value [1, 3] is reported as -26.4 mL/g and the “Ustekinumab kD” value [1, 3] is reported as 15.2 mL/g.

In the case of `COc1cc(CC(=O)O)ccc1O` [Homovanillic acid], the “Omalizumab kD” value [1, 4] is reported as -21.2 mL/g and the “Ustekinumab kD” value [1, 4] is reported as 5.5 mL/g.

For `O=c1cc(CO)occ1O` [Kojic Acid], the “Omalizumab kD” value [1, 4] was -29.1 mL/g and the “Ustekinumab kD” value [1, 4] was 33.2 mL/g.

In the case of `Cc1ncc[nH]1` [Excipient 2-Methylimidazole, 2-Methylimidazole], the “Omalizumab kD” value [1, 4] is reported as -24.5 mL/g and the “Ustekinumab kD” value [1, 4] is reported as -0.5 mL/g.

In the case of `C#CCN[C@@H]1CCc2ccccc21` [rasagiline mesylate], the “Omalizumab kD” value [1, 3] is reported as -24.1 mL/g and the “Ustekinumab kD” value [1, 3] is reported as 26.5 mL/g.

For `Nc1ccc(C(=O)O)cc1` [4-Aminobenzoic acid], the “Omalizumab kD” value [1, 4] was -17.4 mL/g and the “Ustekinumab kD” value [1, 4] was 1.5 mL/g.

For `CN(C)CCN(C)C.Cl` [Tetramethylethylenediamine HCl], the “Omalizumab kD” value [1, 4] was -14.6 mL/g and the “Ustekinumab kD” value [1, 4] was 0.1 mL/g.

In the case of `O.O.O.O.O.O.O.O.O.O.[Na+].[Na+].[O-]B1OB2OB([O-])OB(O1)O2` [Sodium borate], the “Omalizumab kD” value [1, 4] is reported as -28.8 mL/g and the “Ustekinumab kD” value [1, 4] is reported as 17.9 mL/g.

With `Cl.NCC(O)c1ccc(O)c(O)c1` (racemic) [DL-Norepinephrine HCl] the “Omalizumab kD” value [1, 3] was -19.8 mL/g and the “Ustekinumab kD” value [1, 3] was 1.5 mL/g.

For `CN1CCCC1=O` [N-Methyl-2-pyrrolidone], the “Day 1 (visual observation for precipitate)” value ([2]; caffeine 7.5 mg/mL) was “—”, the “Day 7 (visual observation for precipitate)” value ([2]; caffeine 7.5 mg/mL) was “—” and the “Day 18 (visual observation for precipitate)” value ([2]; caffeine 7.5 mg/mL) was “—”. For the same compound, the “Day 27 (visual observation for precipitate)” value ([2]; caffeine 7.5 mg/mL) was “—”, the “Day 56 (visual observation for precipitate)” value ([2]; caffeine 7.5 mg/mL) was “—” and the “Day 1 (visual observation for precipitate)” value ([2]; caffeine 10 mg/mL) was “—”. For the same compound, the “Day 7 (visual observation for precipitate)” value ([2]; caffeine 10 mg/mL) was “—”, the “Day 18 (visual observation for precipitate)” value ([2]; caffeine 10 mg/mL) was “—” and the “Day 27 (visual observation for precipitate)” value ([2]; caffeine 10 mg/mL) was “—”. The “Day 56 (visual observation for precipitate)” value ([2]; caffeine 10 mg/mL) was “—”, the “Day 1 (visual observation for precipitate)” value ([2]; caffeine 12.5 mg/mL) was “—” and the “Day 7 (visual observation for precipitate)” value ([2]; caffeine 12.5 mg/mL) was “—”. For the same compound, the “Day 18 (visual observation for precipitate)” value ([2]; caffeine 12.5 mg/mL) was “—”, the “Day 27 (visual observation for precipitate)” value ([2]; caffeine 12.5 mg/mL) was “—” and the “Day 56 (visual observation for precipitate)” value ([2]; caffeine 12.5 mg/mL) was “PPT”. For the same compound, the “Day 1 (visual observation for precipitate)” value ([2]; caffeine 15 mg/mL) was “—”, the “Day 7 (visual observation for precipitate)” value ([2]; caffeine 15 mg/mL) was “—” and the “Day 18 (visual observation for precipitate)” value ([2]; caffeine 15 mg/mL) was “PPT”. The “Day 27 (visual observation for precipitate)” value ([2]; caffeine 15 mg/mL) was “PPT”, the “Day 56 (visual observation for precipitate)” value ([2]; caffeine 15 mg/mL) was “PPT” and the “Day 1 (visual observation for precipitate)” value ([2]; caffeine 20 mg/mL) was “PPT”. For the same compound, the “Day 7 (visual observation for precipitate)” value ([2]; caffeine 20 mg/mL) was “PPT”, the “Day 18 (visual observation for precipitate)” value ([2]; caffeine 20 mg/mL) was “PPT” and the “Day 27 (visual observation for precipitate)” value ([2]; caffeine 20 mg/mL) was “PPT”. For the same compound, the “Day 56 (visual observation for precipitate)” value ([2]; caffeine 20 mg/mL) was “PPT”.

With `N[C@@H]1CON=C1O` [Cycloserine] the “Omalizumab kD” value [1, 4] was -14.7 mL/g and the “Ustekinumab kD” value [1, 4] was -13.6 mL/g.

With `Cc1ncc(CO)c(CO)c1O.Cl` [pyridoxine HCl] the “Omalizumab kD” value [1, 4] was -4.3 mL/g and the “Ustekinumab kD” value [1, 4] was -0.5 mL/g.

For `OCc1ccccc1` [Benzyl alcohol], the “Day 1 (visual observation for precipitate)” value ([2]; caffeine 7.5 mg/mL) was “—”, the “Day 7 (visual observation for precipitate)” value ([2]; caffeine 7.5 mg/mL) was “—” and the “Day 18 (visual observation for precipitate)” value ([2]; caffeine 7.5 mg/mL) was “—”. The “Day 27 (visual observation for precipitate)” value ([2]; caffeine 7.5 mg/mL) was “—”, the “Day 56 (visual observation for precipitate)” value ([2]; caffeine 7.5 mg/mL) was “—” and the “Day 1 (visual observation for precipitate)” value ([2]; caffeine 10 mg/mL) was “—”. For the same compound, the “Day 7 (visual observation for precipitate)” value ([2]; caffeine 10 mg/mL) was “—”, the “Day 18 (visual observation for precipitate)” value ([2]; caffeine 10 mg/mL) was “—” and the “Day 27 (visual observation for precipitate)” value ([2]; caffeine 10 mg/mL) was “—”. For the same compound, the “Day 56 (visual observation for precipitate)” value ([2]; caffeine 10 mg/mL) was “—”, the “Day 1 (visual observation for precipitate)” value ([2]; caffeine 12.5 mg/mL) was “—” and the “Day 7 (visual observation for precipitate)” value ([2]; caffeine 12.5 mg/mL) was “—”. For the same compound, the “Day 18 (visual observation for precipitate)” value ([2]; caffeine 12.5 mg/mL) was “—”, the “Day 27 (visual observation for precipitate)” value ([2]; caffeine 12.5 mg/mL) was “—” and the “Day 56 (visual observation for precipitate)” value ([2]; caffeine 12.5 mg/mL) was “—”. The “Day 1 (visual observation for precipitate)” value ([2]; caffeine 15 mg/mL) was “—”, the “Day 7 (visual observation for precipitate)” value ([2]; caffeine 15 mg/mL) was “—” and the “Day 18 (visual observation for precipitate)” value ([2]; caffeine 15 mg/mL) was “—”. The “Day 27 (visual observation for precipitate)” value ([2]; caffeine 15 mg/mL) was “PPT”, the “Day 56 (visual observation for precipitate)” value ([2]; caffeine 15 mg/mL) was “PPT” and the “Day 1 (visual observation for precipitate)” value ([2]; caffeine 20 mg/mL) was “—”. For the same compound, the “Day 7 (visual observation for precipitate)” value ([2]; caffeine 20 mg/mL) was “PPT”, the “Day 18 (visual observation for precipitate)” value ([2]; caffeine 20 mg/mL) was “PPT” and the “Day 27 (visual observation for precipitate)” value ([2]; caffeine 20 mg/mL) was “PPT”. The “Day 56 (visual observation for precipitate)” value ([2]; caffeine 20 mg/mL) was “PPT”.

In the case of `N=C(N)NC(=O)Cc1c(Cl)cccc1Cl` [Guanfacine HCl], the “Ustekinumab kD” value [1, 3] is reported as 36.1 mL/g.

With `O=C([O-])c1ccccc1.[Na+]` [Sodium benzoate] the “Day 1 (visual observation for precipitate)” value ([2]; caffeine 7.5 mg/mL) was “—”, the “Day 7 (visual observation for precipitate)” value ([2]; caffeine 7.5 mg/mL) was “—” and the “Day 18 (visual observation for precipitate)” value ([2]; caffeine 7.5 mg/mL) was “—”. The “Day 27 (visual observation for precipitate)” value ([2]; caffeine 7.5 mg/mL) was “—”, the “Day 56 (visual observation for precipitate)” value ([2]; caffeine 7.5 mg/mL) was “—” and the “Day 1 (visual observation for precipitate)” value ([2]; caffeine 10 mg/mL) was “—”. For the same compound, the “Day 7 (visual observation for precipitate)” value ([2]; caffeine 10 mg/mL) was “—”, the “Day 18 (visual observation for precipitate)” value ([2]; caffeine 10 mg/mL) was “—” and the “Day 27 (visual observation for precipitate)” value ([2]; caffeine 10 mg/mL) was “—”. The “Day 56 (visual observation for precipitate)” value ([2]; caffeine 10 mg/mL) was “—”, the “Day 1 (visual observation for precipitate)” value ([2]; caffeine 12.5 mg/mL) was “—” and the “Day 7 (visual observation for precipitate)” value ([2]; caffeine 12.5 mg/mL) was “—”. For the same compound, the “Day 18 (visual observation for precipitate)” value ([2]; caffeine 12.5 mg/mL) was “—”, the “Day 27 (visual observation for precipitate)” value ([2]; caffeine 12.5 mg/mL) was “—” and the “Day 56 (visual observation for precipitate)” value ([2]; caffeine 12.5 mg/mL) was “—”. The “Day 1 (visual observation for precipitate)” value ([2]; caffeine 15 mg/mL) was “—”, the “Day 7 (visual observation for precipitate)” value ([2]; caffeine 15 mg/mL) was “—” and the “Day 18 (visual observation for precipitate)” value ([2]; caffeine 15 mg/mL) was “—”. For the same compound, the “Day 27 (visual observation for precipitate)” value ([2]; caffeine 15 mg/mL) was “—”, the “Day 56 (visual observation for precipitate)” value ([2]; caffeine 15 mg/mL) was “PPT” and the “Day 1 (visual observation for precipitate)” value ([2]; caffeine 20 mg/mL) was “—”. The “Day 7 (visual observation for precipitate)” value ([2]; caffeine 20 mg/mL) was “—”, the “Day 18 (visual observation for precipitate)” value ([2]; caffeine 20 mg/mL) was “PPT” and the “Day 27 (visual observation for precipitate)” value ([2]; caffeine 20 mg/mL) was “PPT”. The “Day 56 (visual observation for precipitate)” value ([2]; caffeine 20 mg/mL) was “PPT”.

For `Cn1cnc(CC(=O)O)c1` [1-methyl-4-imidazoleacetic acid], the “Omalizumab kD” value [1, 4] was -21.8 mL/g and the “Ustekinumab kD” value [1, 4] was 47.4 mL/g.

For `Nn1nnc2ccccc21` [Excipient 1-aminobenzotriazole, 1-aminobenzotriazole], the “Omalizumab kD” value [1, 4] was -24.1 mL/g and the “Ustekinumab kD” value [1, 4] was 24.0 mL/g.

With `O=C(O)C1=CCNCC1` [Isoguvacine HCl] the “Omalizumab kD” value [1, 4] was -7.9 mL/g and the “Ustekinumab kD” value [1, 4] was 1.0 mL/g.
